Legend:
[1] = test system: MCF7 cells; assay: Inhibitory effects on MCF7 cell proliferation (CellTiter-Glo); format: cell-based; settings: Homo sapiens, 144 h, 6 days incubation, read-out: IC50 (nM), inhibition of MCF7 cell proliferation
Description: (§1) MCF7 cells (TCHu74, National Collection of Authenticated Cell Cultures) were cultured in an MEM (GE Healthcare, SH30024.01) complete medium containing 10% fetal bovine serum. On day 1 of the experiment, MCF7 cells were seeded into a 96-well plate at a density of 3,000 cells/well using MEM containing 2% fetal bovine serum, with each well containing 135 μL of cell suspension. The plate was incubated in a 37° C., 5% CO2 cell incubator overnight. The next day, different concentrations of test compounds prepared in media were added at 15 μL/well. The final concentrations of the compounds were 9 concentration points obtained by 4-fold serial dilution from 1000 nM. A blank control containing 0.5% DMSO was set up. The plate was incubated in a 37° C., 5% CO2 cell incubator for 6 days. On day 8, the 96-well cell culture plate was taken out, and CellTiter-Glo® Luminescent Cell Viability Assay (Promega, G7573) was added at 75 μL/well. After the plate was left at room temperature for 10 min, luminescence signal readings were taken on a multilabel microplate reader (PerkinElmer, VICTOR 3). The IC50 values for the inhibitory activity of the compounds were calculated from the concentrations of the compounds and the luminescence signal readings using Graphpad Prism software.

[2] = test system: MCF7/ERα Y537S cells; assay: Inhibitory activity on proliferation of ERα mutant-expressing MCF7 cells; format: cell-based; settings: Homo sapiens, 144 h, 6 days incubation, CellTiter-Glo, read-out: IC50 (nM), inhibition of proliferation of ERα mutant-expressing MCF7 cells
Description: The objective of this experiment was to determine the inhibitory activity of the compounds of the present disclosure on the proliferation of ERα mutant-expressing MCF7 cells.
as §1, with “cells expressing the ERα Y537S mutant were constructed by lentiviral infection. MCF7/ERα Y537S cells” for “cells (TCHu74, National Collection of Authenticated Cell Cultures)”, “bovine serum and […] puromycin.” for “bovine serum.”, “experiment,” for “experiment, MCF7”, “135 µL” for “135 μL”, “75 µL/well.” for “75 μL/well.”

With `O=C1CCC(N2Cc3cc(N4CCN(CC5CCN(c6ccc([C@@H]7c8ccc(O)cc8CCC78CCCC8)cc6)CC5)CC4)ccc3C2=O)C(=O)N1` (mixture of isomers) [Example 2-1, 3-(5-(4-((1-(4-((R)-6′-Hydroxy-3′,4′-dihydro-1′H-spiro[cyclopentane-1,2′-naphthalen]-1′-yl)phenyl)piperidin-4-yl)methyl)piperazin-1-yl)-1-oxoisoindolin-2-yl)piperidine-2,6-dione] the IC50 [1] was 1.94 nM and the IC50 [2] was 7.83 nM.

`O=C1CCC(N2Cc3cc(N4CCN(CC5CCN(c6ccc([C@@H]7c8ccc(O)cc8CC[C@@H]7C7CCOCC7)cc6F)CC5)CC4)ccc3C2=O)C(=O)N1` (mixture of isomers) [Example 4-1, 3-(5-(4-((1-(2-Fluoro-4-((1R,2R)-6-hydroxy-2-(tetrahydro-2H-pyran-4-yl)-1,2,3,4-tetrahydronaphthalen-1-yl)phenyl)piperidin-4-yl)methyl)piperazin-1-yl)-1-oxoisoindolin-2-yl)piperidine-2,6-dione] gave an IC50 [1] of 0.92 nM and an IC50 [2] of 4.71 nM.

`O=C1CCC(N2Cc3nc(N4CCN(CC5CCN(c6ccc([C@@H]7c8ccc(O)cc8CCC78CCCC8)cc6)CC5)CC4)ccc3C2=O)C(=O)N1` (mixture of isomers) [Example 6, 3-(2-(4-((1-(4-((R)-6′-Hydroxy-3′,4′-dihydro-1′H-spiro[cyclopentane-1,2′-naphthalen]-1′-yl)phenyl)piperidin-4-yl)methyl)piperazin-1-yl)-5-oxo-5,7-dihydro-6H-pyrrolo[3,4-b]pyridin-6-yl)piperidine-2,6-dione] gave an IC50 [1] of 0.75 nM and an IC50 [2] of 3.19 nM.

Work on `O=C1CCC(N2Cc3cc(N4CCN(CC5CCN(c6ccc([C@@H]7c8ccc(O)cc8CC[C@@H]7C7CCOCC7)cc6)CC5)CC4)ccc3C2=O)C(=O)N1` (mixture of isomers) [Example 8-1, 3-(5-(4-((1-(4-((1R,2R)-6-Hydroxy-2-(tetrahydro-2H-pyran-4-yl)-1,2,3,4-tetrahydronaphthalen-1-yl)phenyl)piperidin-4-yl)methyl)piperazin-1-yl)-1-oxoisoindolin-2-yl)piperidine-2,6-dione] yielded an IC50 [1] of 0.46 nM and an IC50 [2] of 2.8 nM.

Molecule `O=C1CCC(N2Cc3cc(N4CCN(CC5CCN(c6ccc([C@@H]7c8ccc(O)cc8CC[C@@H]7C7CCC(F)(F)CC7)cc6)CC5)CC4)ccc3C2=O)C(=O)N1` (mixture of isomers) [Example 10, 3-(5-(4-((1-(4-((1R,2R)-2-(4,4-Difluorocyclohexyl)-6-hydroxy-1,2,3,4-tetrahydronaphthalen-1-yl)phenyl)piperidin-4-yl)methyl)piperazin-1-yl)-1-oxoisoindolin-2-yl)piperidine-2,6-dione] has an IC50 [1] of 0.3 nM and an IC50 [2] of 1.38 nM.

With `O=C1CCC(N2Cc3cc(N4CCN(CC5CCN(c6ccc([C@@H]7c8ccc(O)cc8CC[C@@H]7C7CCOCC7)c(F)c6)CC5)CC4)ccc3C2=O)C(=O)N1` (mixture of isomers) [Example 12-1, 3-(5-(4-((1-(3-Fluoro-4-((1S,2R)-6-hydroxy-2-(tetrahydro-2H-pyran-4-yl)-1,2,3,4-tetrahydronaphthalen-1-yl)phenyl)piperidin-4-yl)methyl)piperazin-1-yl)-1-oxoisoindolin-2-yl)piperidine-2,6-dione] the IC50 [1] was 0.45 nM and the IC50 [2] was 1.28 nM.

`O=C1CCC(N2Cc3cc(N4CCN(CC5CCN(c6ccc([C@H]7c8ccc(O)cc8CC[C@H]7C7CCOCC7)c(F)c6)CC5)CC4)ccc3C2=O)C(=O)N1` (mixture of isomers) [Example 12-2, 3-(5-(4-((1-(3-Fluoro-4-((1R,2S)-6-hydroxy-2-(tetrahydro-2H-pyran-4-yl)-1,2,3,4-tetrahydronaphthalen-1-yl)phenyl)piperidin-4-yl)methyl)piperazin-1-yl)-1-oxoisoindolin-2-yl)piperidine-2,6-dione] showed an IC50 [1] of 13.7 nM and an IC50 [2] of 39.4 nM.

Molecule `O=C1CCC(N2Cc3cc(N4CCN(CC5CCN(c6ccc([C@@H]7c8ccc(O)cc8CC[C@@H]7C7CCCC7)cc6)CC5)CC4)ccc3C2=O)C(=O)N1` (mixture of isomers) [Example 14-1, 3-(5-(4-((1-(4-((1R,2R)-2-Cyclopentyl-6-hydroxy-1,2,3,4-tetrahydronaphthalen-1-yl)phenyl)piperidin-4-yl)methyl)piperazin-1-yl)-1-oxoisoindolin-2-yl)piperidine-2,6-dione] has an IC50 [1] of 0.75 nM and an IC50 [2] of 2.45 nM.

`O=C1CCC(N2Cc3cc(N4CCN(CC5CCN(c6ccc([C@@H]7c8ccc(O)cc8CC[C@@H]7C7CCCCC7)cc6)CC5)CC4)ccc3C2=O)C(=O)N1` (mixture of isomers) [Example 15-1, 3-(5-(4-((1-(4-((1R,2R)-2-Cyclohexyl-6-hydroxy-1,2,3,4-tetrahydronaphthalen-1-yl)phenyl)piperidin-4-yl)methyl)piperazin-1-yl)-1-oxoisoindolin-2-yl)piperidine-2,6-dione] was tested, and the IC50 [1] was 0.46 nM and the IC50 [2] was 2.18 nM.

`O=C1CCC(N2Cc3cc(N4CCN(CC5CCN(c6ccc([C@@H]7c8ccc(O)cc8CCC78CCC8)cc6)CC5)CC4)ccc3C2=O)C(=O)N1` (mixture of isomers) [Example 23-1, 3-(5-(4-((1-(4-((R)-6′-Hydroxy-3′,4′-dihydro-1′H-spiro[cyclobutane-1,2′-naphthalen]-1′-yl)phenyl)piperidin-4-yl)methyl)piperazin-1-yl)-1-oxoisoindolin-2-yl)piperidine-2,6-dione] gave an IC50 [1] of 2.39 nM and an IC50 [2] of 7.53 nM.

`O=C1CCC(N2Cc3cc(N4CCN(CC5CCN(c6ccc([C@H]7c8ccc(O)cc8CCC78CCC8)cc6)CC5)CC4)ccc3C2=O)C(=O)N1` (mixture of isomers) [Example 23-2, 3-(5-(4-((1-(4-((S)-6′-Hydroxy-3′,4′-dihydro-1′H-spiro[cyclobutane-1,2′-naphthalen]-1′-yl)phenyl)piperidin-4-yl)methyl)piperazin-1-yl)-1-oxoisoindolin-2-yl)piperidine-2,6-dione] was tested, and the IC50 [1] was 20 nM and the IC50 [2] was 72.1 nM.

`CC1(C)CCc2cc(O)ccc2[C@H]1c1ccc(N2CCC(CN3CCN(c4ccc5c(c4)CN(C4CCC(=O)NC4=O)C5=O)CC3)CC2)cc1` (mixture of isomers) [Example 25-1, 3-(5-(4-((1-(4-((R)-6-Hydroxy-2,2-dimethyl-1,2,3,4-tetrahydronaphthalen-1-yl)phenyl)piperidin-4-yl)methyl)piperazin-1-yl)-1-oxoisoindolin-2-yl)piperidine-2,6-dione] showed an IC50 [1] of 2.46 nM and an IC50 [2] of 12.9 nM.

For `CC(C)C[C@H]1CCc2cc(O)ccc2[C@H]1c1ccc(N2CCC(CN3CCN(c4ccc5c(c4)CN(C4CCC(=O)NC4=O)C5=O)CC3)CC2)cc1` (mixture of isomers) [Example 41, 3-(5-(4-((1-(4-((1R,2R)-6-Hydroxy-2-isobutyl-1,2,3,4-tetrahydronaphthalen-1-yl)phenyl)piperidin-4-yl)methyl)piperazin-1-yl)-1-oxoisoindolin-2-yl)piperidine-2,6-dione], the IC50 [1] was 0.62 nM and the IC50 [2] was 2.89 nM.

`O=C1CCC(N2Cc3cc(N4CCN(CC5CCN(c6ccc([C@@H]7c8ccc(O)cc8CC[C@@H]7C7CCOCC7)cc6F)CC5)CC4)ccc3C2=O)C(=O)N1` (relative stereo) [Example 3, 3-(5-(4-((1-(2-Fluoro-4-((1,2)-cis-6-hydroxy-2-(tetrahydro-2H-pyran-4-yl)-1,2,3,4-tetrahydronaphthalen-1-yl)phenyl)piperidin-4-yl)methyl)piperazin-1-yl)-1-oxoisoindolin-2-yl)piperidine-2,6-dione] showed an IC50 [1] of 1.56 nM and an IC50 [2] of 5.79 nM.

Reference: US20250099596A1, “TETRAHYDRONAPHTHALENE COMPOUND, AND PREPARATION METHOD THEREFOR AND USE THEREOF IN MEDICINE” (Jiangsu Hengrui Pharmaceuticals Co., Ltd., priority 2021, published 2025)
